Where two headings read alike, the source gives them in different places.
Target: HiBit-WIZ fusion protein (Homo sapiens, UniProt O95785+Q96SW2)
Experiment: Quantification of WIZ protein levels in HiBit tag fusion protein assay (WIZ HiBit assay in 293T cells)
Type: cell-based
Set-up: Dmax: dose or concentration left out as unconfirmed
Details: for Dmax / remaining activity at up to 25 µM / remaining activity: HEK-293T; for remaining activity at up to 25 µM: read-out: WIZ Amax; for DC50: WIZ HiBit assay in 293T cells, 10-point, 5-fold dose response, highest concentration 25 μM, about 18 hours, read-out: WIZ AC50; for remaining activity: read-out: WIZ Amax, DMSO-normalized, curve-fitted percentage of WIZ-HiBit remaining at 25 uM
[1] = 100 minus Amax, 293T cells, read-out: % degradation of WIZ (100-Amax)
[2] = DMSO-normalized, curve-fitted percentage of WIZ-HiBit remaining at 25 uM, 293T cells
[3] = read-out: % degradation of WIZ (100-Amax), 100 minus Amax, 293T cells

Chain of HiBit-WIZ fusion protein (O95785 whole entry, the tested form may be a part): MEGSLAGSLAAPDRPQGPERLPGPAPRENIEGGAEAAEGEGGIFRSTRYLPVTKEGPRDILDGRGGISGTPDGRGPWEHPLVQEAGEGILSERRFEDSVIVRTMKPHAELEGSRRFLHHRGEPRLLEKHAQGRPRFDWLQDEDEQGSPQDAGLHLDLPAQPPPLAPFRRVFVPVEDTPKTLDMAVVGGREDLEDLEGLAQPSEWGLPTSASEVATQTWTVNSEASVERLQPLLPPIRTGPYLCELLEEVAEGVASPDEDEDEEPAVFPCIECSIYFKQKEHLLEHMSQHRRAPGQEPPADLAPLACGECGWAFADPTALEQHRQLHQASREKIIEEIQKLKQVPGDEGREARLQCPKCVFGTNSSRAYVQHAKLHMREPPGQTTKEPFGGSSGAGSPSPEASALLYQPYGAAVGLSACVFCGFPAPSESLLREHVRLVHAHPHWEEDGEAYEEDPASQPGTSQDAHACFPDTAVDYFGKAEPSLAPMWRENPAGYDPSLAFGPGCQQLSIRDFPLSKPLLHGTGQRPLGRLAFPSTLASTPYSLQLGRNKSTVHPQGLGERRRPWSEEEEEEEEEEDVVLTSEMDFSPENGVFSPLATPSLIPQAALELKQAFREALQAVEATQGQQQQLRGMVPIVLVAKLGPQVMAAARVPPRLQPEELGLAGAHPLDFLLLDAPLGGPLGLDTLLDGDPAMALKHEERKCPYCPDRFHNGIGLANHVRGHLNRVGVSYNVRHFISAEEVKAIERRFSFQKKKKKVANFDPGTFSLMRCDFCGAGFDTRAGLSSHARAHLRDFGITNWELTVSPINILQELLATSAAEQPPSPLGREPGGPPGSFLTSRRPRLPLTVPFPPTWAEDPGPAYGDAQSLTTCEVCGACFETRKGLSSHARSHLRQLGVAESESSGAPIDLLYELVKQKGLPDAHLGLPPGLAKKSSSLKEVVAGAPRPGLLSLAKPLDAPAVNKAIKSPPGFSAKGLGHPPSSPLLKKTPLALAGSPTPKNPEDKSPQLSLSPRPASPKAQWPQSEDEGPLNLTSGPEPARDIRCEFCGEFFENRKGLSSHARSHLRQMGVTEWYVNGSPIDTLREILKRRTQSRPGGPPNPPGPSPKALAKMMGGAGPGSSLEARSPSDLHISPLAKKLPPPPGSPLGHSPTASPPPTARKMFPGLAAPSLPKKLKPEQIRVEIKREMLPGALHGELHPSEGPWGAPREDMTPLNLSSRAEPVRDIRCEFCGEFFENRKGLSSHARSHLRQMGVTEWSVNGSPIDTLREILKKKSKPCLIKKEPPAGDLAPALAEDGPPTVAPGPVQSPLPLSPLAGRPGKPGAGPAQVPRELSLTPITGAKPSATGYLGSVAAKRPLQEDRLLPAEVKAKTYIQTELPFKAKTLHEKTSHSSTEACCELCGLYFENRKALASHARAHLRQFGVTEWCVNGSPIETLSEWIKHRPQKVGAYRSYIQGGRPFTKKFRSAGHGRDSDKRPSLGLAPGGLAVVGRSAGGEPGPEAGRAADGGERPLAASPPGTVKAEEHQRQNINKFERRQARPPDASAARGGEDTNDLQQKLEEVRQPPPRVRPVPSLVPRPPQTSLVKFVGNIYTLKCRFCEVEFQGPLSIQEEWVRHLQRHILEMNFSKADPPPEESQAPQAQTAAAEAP
Chain of HiBit-WIZ fusion protein (Q96SW2 whole entry, the tested form may be a part): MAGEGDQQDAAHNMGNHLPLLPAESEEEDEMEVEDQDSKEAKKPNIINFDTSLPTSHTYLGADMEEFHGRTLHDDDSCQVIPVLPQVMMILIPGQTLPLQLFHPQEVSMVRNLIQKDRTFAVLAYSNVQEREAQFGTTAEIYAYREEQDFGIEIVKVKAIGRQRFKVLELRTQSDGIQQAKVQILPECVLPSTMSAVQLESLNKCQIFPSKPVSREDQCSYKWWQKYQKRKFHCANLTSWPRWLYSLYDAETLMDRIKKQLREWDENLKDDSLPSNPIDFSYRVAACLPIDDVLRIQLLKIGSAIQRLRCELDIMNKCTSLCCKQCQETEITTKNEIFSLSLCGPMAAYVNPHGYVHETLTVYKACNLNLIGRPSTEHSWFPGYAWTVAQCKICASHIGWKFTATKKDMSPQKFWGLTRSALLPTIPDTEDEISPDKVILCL
Chain of HiBit-WIZ fusion protein (Q16531 whole entry partner, the tested form may be a part): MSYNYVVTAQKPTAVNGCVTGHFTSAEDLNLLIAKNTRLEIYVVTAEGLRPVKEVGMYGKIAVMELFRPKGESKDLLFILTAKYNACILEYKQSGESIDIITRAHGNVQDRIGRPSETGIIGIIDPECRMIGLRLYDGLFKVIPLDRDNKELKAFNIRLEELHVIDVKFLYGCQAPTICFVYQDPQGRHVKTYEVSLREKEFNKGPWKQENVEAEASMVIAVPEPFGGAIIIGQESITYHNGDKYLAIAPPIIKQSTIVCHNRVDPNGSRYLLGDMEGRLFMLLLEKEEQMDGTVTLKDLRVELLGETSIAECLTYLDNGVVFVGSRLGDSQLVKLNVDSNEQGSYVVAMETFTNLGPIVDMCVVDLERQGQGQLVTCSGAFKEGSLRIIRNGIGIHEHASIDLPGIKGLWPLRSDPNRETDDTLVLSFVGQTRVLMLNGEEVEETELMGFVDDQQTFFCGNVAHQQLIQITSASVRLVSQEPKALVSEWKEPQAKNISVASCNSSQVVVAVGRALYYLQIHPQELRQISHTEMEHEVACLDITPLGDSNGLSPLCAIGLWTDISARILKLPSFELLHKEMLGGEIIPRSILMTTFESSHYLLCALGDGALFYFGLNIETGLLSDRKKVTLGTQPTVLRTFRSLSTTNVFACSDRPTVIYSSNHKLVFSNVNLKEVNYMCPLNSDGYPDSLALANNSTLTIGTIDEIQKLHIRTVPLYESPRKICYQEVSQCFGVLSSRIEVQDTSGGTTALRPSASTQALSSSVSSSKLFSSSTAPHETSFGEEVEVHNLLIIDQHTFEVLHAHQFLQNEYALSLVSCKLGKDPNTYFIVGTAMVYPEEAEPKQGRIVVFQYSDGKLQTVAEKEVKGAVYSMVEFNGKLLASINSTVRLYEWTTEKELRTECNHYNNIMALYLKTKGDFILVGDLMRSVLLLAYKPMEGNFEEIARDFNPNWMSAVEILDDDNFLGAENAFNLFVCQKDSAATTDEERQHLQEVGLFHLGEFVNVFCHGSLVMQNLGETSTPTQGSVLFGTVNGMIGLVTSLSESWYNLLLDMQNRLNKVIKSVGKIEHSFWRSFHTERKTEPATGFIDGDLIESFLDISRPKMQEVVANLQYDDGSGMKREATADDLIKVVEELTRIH

Structure (SMILES)	Dmax [1] [%]	remaining activity at up to 25 µM [2] [%]	DC50 [µM]	Dmax [3] [%]	remaining activity (293T cells) [%]	% degradation of WIZ (100-Amax) (100 minus Amax, at 25 uM, 293T cells) [%]	WIZ Amax [2] [%]
Cc1cc(CN2CCCC[C@H]2COc2ccc3c(c2)CN(C2CCC(=O)NC2=O)C3=O)no1 (some centres unmarked) [Compound I-50by]	25.7	74.3	> 25				
O=C1CCC(N2Cc3cc(OC[C@@H]4CCCCN4C(=O)c4ccc5nccnc5c4)ccc3C2=O)C(=O)N1 (some centres unmarked) [Compound I-72hq]	13.3	86.7	> 25				
O=C1CCC(N2Cc3cc(OC[C@H]4CCCCN4Cc4ccccc4OCCN4CCOCC4)ccc3C2=O)C(=O)N1 (some centres unmarked) [Compound I-50ed]	92.3	7.7	0.1				
NS(=O)(=O)c1cc(CN2CCCC[C@H]2COc2ccc3c(c2)CN(C2CCC(=O)NC2=O)C3=O)ccc1Cl (some centres unmarked) [Compound I-50bd]	41.1	58.9	> 25				
O=C1CCC(N2Cc3cc(OC[C@H]4CCCCN4Cc4ccc[nH]c4=O)ccc3C2=O)C(=O)N1 (some centres unmarked) [Compound I-50dp]	65.5	34.5	6.84				
O=C1CCC(N2Cc3cc(OC[C@@H]4CC(F)(F)CN4)ccc3C2=O)C(=O)N1 (stereo partly drawn) [Compound I-84, 3-(5-(((S)-4,4-difluoropyrrolidin-2-yl)methoxy)-1-oxoisoindolin-2-yl)piperidine-2,6-dione]	21.2	78.8	> 25				
O=C1CCC(N2Cc3cc(OC[C@H]4CCCCN4Cc4ccc(F)cn4)ccc3C2=O)C(=O)N1 (some centres unmarked) [Compound I-115]	89.5	10.5	0.17				
Cc1cc(-c2onc(C)c2C(=O)N2CCCC[C@H]2COc2ccc3c(c2)CN(C2CCC(=O)NC2=O)C3=O)no1 (some centres unmarked) [Compound I-72ep]	77.8	22.2	1.35				
O=C1CCC(N2Cc3cc(OC[C@H]4CCCCN4Cc4cccc(F)c4O)ccc3C2=O)C(=O)N1 (some centres unmarked) [Compound I-143]	37.4	62.6					
CCc1cc(C(=O)N2CCCC[C@H]2COc2ccc3c(c2)CN(C2CCC(=O)NC2=O)C3=O)on1 (some centres unmarked) [Compound I-72ek]	21	79	> 25				
O=C1CCC(N2Cc3cc(OC[C@@H]4CCCCN4C(=O)c4cccc(S(=O)(=O)O)c4)ccc3C2=O)C(=O)N1 (some centres unmarked) [Compound I-72a]	11.2	88.8	> 25				
Cc1cc(-n2c(C)cc(C(=O)N3CCCC[C@H]3COc3ccc4c(c3)CN(C3CCC(=O)NC3=O)C4=O)c2C)no1 (some centres unmarked) [Compound I-72iu]	71.7	28.3	2				
CC(C)N1CCN(c2ccc(CN3CCCC[C@@H]3COc3ccc4c(c3)CN(C3CCC(=O)NC3=O)C4=O)cc2)CC1 (stereo partly drawn) [Compound I-227, 3-(5-(((R)-1-(4-(4-isopropylpiperazin-1-yl)benzyl)piperidin-2-yl)methoxy)-1-oxoisoindolin-2-yl)piperidine-2,6-dione]			0.058	64.2	35.8		
O=C1CCC(N2Cc3cc(OC[C@@H]4CCCCN4Cc4cc(-n5nnnc5C(F)(F)F)ccc4O)ccc3C2=O)C(=O)N1 (some centres unmarked) [Compound I-50x]	22	78	> 25				
CCC(Oc1ccc2c(c1)CN(C1CCC(=O)NC1=O)C2=O)[C@@H]1CCCN1 (single isomer, unassigned) [Compound I-45]			> 25			21.3	78.7
O=C1CCC(N2Cc3cc(OC[C@@H]4CCCCN4Cc4cccn4S(=O)(=O)c4ccccc4)ccc3C2=O)C(=O)N1 (some centres unmarked) [Compound I-50f]	82.6	17.4	0.816				
O=C1CCC(N2Cc3cc(OC[C@@H]4CCCCN4Cc4ncccc4O)ccc3C2=O)C(=O)N1 (some centres unmarked) [Compound I-50dg]	16.1	83.9	> 25				
O=C1CCC(N2Cc3cc(OC[C@@H]4CCCCN4Cc4ccccc4OCCN4CCOCC4)ccc3C2=O)C(=O)N1 (some centres unmarked) [Compound I-50ab]	50.8	49.2	> 25				
N#CCCN1CCN(CC(=O)N2CCCC[C@H]2COc2ccc3c(c2)CN(C2CCC(=O)NC2=O)C3=O)CC1 (some centres unmarked) [Compound I-72x]	0	100	> 25				
O=C1CCC(N2Cc3cc(OC[C@H]4CCCCN4Cc4ccc(N5CCN(CC6CC6)CC5)cc4)ccc3C2=O)C(=O)N1 (stereo partly drawn) [Compound I-102, 3-(5-(((R)-1-(4-(4-(cyclopropylmethyl)piperazin-1-yl)benzyl)piperidin-2-yl)methoxy)-1-oxoisoindolin-2-yl)piperidine-2,6-dione]	82.7	17.3	0.24				
COc1ccc(C(=O)N2CCCC[C@H]2COc2ccc3c(c2)CN(C2CCC(=O)NC2=O)C3=O)cc1OCc1ccccc1 (some centres unmarked) [Compound I-72d]	71.6	28.4	1.9				

Structure (SMILES)	Dmax [1] [%]	remaining activity at up to 25 µM [2] [%]	DC50 [µM]	Dmax [3] [%]	remaining activity (293T cells) [%]	% degradation of WIZ (100-Amax) (100 minus Amax, at 25 uM, 293T cells) [%]	WIZ Amax [2] [%]
Nc1ncc(CN2CCCC[C@H]2COc2ccc3c(c2)CN(C2CCC(=O)NC2=O)C3=O)cn1 (some centres unmarked) [Compound I-50be]	41.9	58.1	> 25				
O=C1CCC(N2Cc3cc(OC[C@@H]4CCCCN4CC4CCN(C(=O)OCc5ccccc5)CC4)ccc3C2=O)C(=O)N1 (some centres unmarked) [Compound I-50cr]	52.9	47.1	> 25				
O=C1CCC(N2Cc3cc(OC[C@H]4CCCCN4Cc4ccc(N5CCOCC5)cc4)ccc3C2=O)C(=O)N1 (some centres unmarked) [Compound I-50dx]	98	2	0.002				
COc1ccc(CN2CCCC[C@H]2COc2ccc3c(c2)CN(C2CCC(=O)NC2=O)C3=O)cc1F (some centres unmarked) [Compound I-50a]	52.2	47.8	> 25				
CCN1CCC(c2ccc(CN3CCCC[C@@H]3COc3ccc4c(c3)CN(C3CCC(=O)NC3=O)C4=O)cc2)CC1 (stereo partly drawn) [Compound I-129, 3-(5-(((R)-1-(4-(1-ethylpiperidin-4-yl)benzyl)piperidin-2-yl)methoxy)-1-oxoisoindolin-2-yl)piperidine-2,6-dione]			0.046	67.7	32.3		
CN(C)Cc1ncc(-c2ccc(Oc3cc(Cl)cnc3CN3CCCC[C@H]3COc3ccc4c(c3)CN(C3CCC(=O)NC3=O)C4=O)cc2)n1C (some centres unmarked) [Compound I-50z]	79.2	20.8	3.2				
O=C1CCC(N2Cc3cc(OC[C@@H]4CCCCN4Cc4cccc(O)c4O)ccc3C2=O)C(=O)N1 (some centres unmarked) [Compound I-50bx]	56.4	43.6	21				
O=C1CCC(N2Cc3cc(OC[C@@H]4CCCCN4C(=O)c4ccccc4Cn4cncn4)ccc3C2=O)C(=O)N1 (some centres unmarked) [Compound I-72jx]	6.1	93.9	> 25				
O=C1CCC(N2Cc3cc(OC[C@@H]4CCCCN4Cc4n[nH]c5ccc(Oc6cccnc6)cc45)ccc3C2=O)C(=O)N1 (some centres unmarked) [Compound I-50af]	57.2	42.8	21.1				
CN(C)c1cccc(C(=O)N2CCCC[C@H]2COc2ccc3c(c2)CN(C2CCC(=O)NC2=O)C3=O)c1 (some centres unmarked) [Compound I-72gg]	24	76	> 25				
O=C1CCC(N2Cc3cc(OC[C@@H]4CCCCN4Cc4ccnc5[nH]ccc45)ccc3C2=O)C(=O)N1 (some centres unmarked) [Compound I-50cx]	92.6	7.4	0.143				
O=C1CCC(N2Cc3cc(OC[C@@H]4CCCCN4Cc4ccccc4Cn4cncn4)ccc3C2=O)C(=O)N1 (some centres unmarked) [Compound I-50q]	4.5	95.5	> 25				
O=C1CCC(N2Cc3cc(OC[C@H]4CCCCN4Cc4ccncc4)ccc3C2=O)C(=O)N1 (some centres unmarked) [Compound I-146]	68.7	31.3	2.2				
N#Cc1cccc(Cn2cccc(CN3CCCC[C@H]3COc3ccc4c(c3)CN(C3CCC(=O)NC3=O)C4=O)c2=O)c1 (some centres unmarked) [Compound I-50aw]	24.5	75.5	> 25				
O=C1CCC(N2Cc3cc(OC[C@@H]4CCCCN4C(=O)CCn4c(=O)oc5ccccc54)ccc3C2=O)C(=O)N1 (some centres unmarked) [Compound I-72jb]	0.3	99.7	> 25				
CC1(c2ccc(C(=O)N3CCCC[C@H]3COc3ccc4c(c3)CN(C3CCC(=O)NC3=O)C4=O)cc2)COC1 (some centres unmarked) [Compound I-72gc]	58.3	41.7	10.1				
CCCCc1cnc(C(=O)N2CCCC[C@H]2COc2ccc3c(c2)CN(C2CCC(=O)NC2=O)C3=O)nc1OC (some centres unmarked) [Compound I-72aw]	60.4	39.6	8.52				
Cn1nc(CN2CCCC[C@@H]2COc2ccc3c(c2)CN(C2CCC(=O)NC2=O)C3=O)cc1-c1ccccc1 (some centres unmarked) [Compound I-50dm]	100	0	0.007				
Cn1ccc(C(=O)N2CCCC[C@H]2COc2ccc3c(c2)CN(C2CCC(=O)NC2=O)C3=O)cc1=O (some centres unmarked) [Compound I-72ao]	8.3	91.7	> 25				
Cn1nc(C(=O)N2CCCC[C@H]2COc2ccc3c(c2)CN(C2CCC(=O)NC2=O)C3=O)cc1-c1ccccc1 (some centres unmarked) [Compound I-72ir]	35.7	64.3	> 25				
CN(C)c1ncc(CN2CCCC[C@H]2COc2ccc3c(c2)CN(C2CCC(=O)NC2=O)C3=O)cn1 (some centres unmarked) [Compound I-50m]	46.6	53.4	> 25				
